Source: ChEMBL document CHEMBL5236560, “Structure-Based Discovery of Potent CARM1 Inhibitors for Solid Tumor and Cancer Immunology Therapy” (J Med Chem, 2021)

Key:
[1] = tested on: BT-549; test: Antitumor activity against human BT-549 cells xenografted in po dosed nude mouse assessed as tumor growth inhibition at 75 mg/kg administered once daily measured after 18 days relative to control; format: functional; settings: BT-549, 432 h, time 18 day, read-out: TGI
[2] = tested on: ASPC1; test: Antiproliferative activity against human ASPC1 cells assessed as cell growth inhibition incubated for 6 days by SRB assay; format: functional, cell-based; settings: ASPC1, 144 h
[3] = Toxicity in po dosed nude mouse xenografted with human BT-549 cells assessed as change in body weight at 75 to 125 mg/kg administered once daily measured after 18 days; format: organism-based; settings: in vivo, 432 h, dose 75-125 mg/kg, time 18 day
[4] = tested on: A-375; test: Antiproliferative activity against human A-375 cells assessed as cell growth inhibition incubated for 6 days by SRB assay; format: functional, cell-based; settings: A-375, 144 h
[5] = tested on: MC-38; test: Antitumor activity against mouse MC38 cells implanted in po dosed BALB/c nude mouse assessed as tumor growth inhibition at 100 mg/kg administered once daily measured after 18 days relative to control; format: functional; settings: MC-38, 432 h, time 18 day, read-out: TGI
[6] = molecular target: Protein arginine N-methyltransferase 5 (Homo sapiens, UniProt O14744); test: Inhibition of PRMT5 (unknown origin) incubated for 15 mins measured after 60 min by AlphaLISA assay
[7] = tested on: MC-38; test: Antitumor activity against mouse MC38 cells implanted in po dosed C57BL/6J mouse assessed as tumor growth inhibition at 100 mg/kg administered once daily measured after 32 days relative to control; format: functional; settings: MC-38, 768 h, time 32 day, read-out: TGI
[8] = tested on: ASPC1; test: Induction of apoptosis in human ASPC1 cells at 15 uM measured after 96 hrs by Annexin V-FITC/PI staining based flow cytometric analysis (reference value: 6.1 %); format: functional
[9] = tested on: A-375; test: Induction of apoptosis in human A-375 cells at 15 uM measured after 96 hrs by Annexin V-FITC/PI staining based flow cytometric analysis (reference value: 5.6 %); format: functional
[10] = molecular target: Protein arginine N-methyltransferase 1 (Homo sapiens, UniProt Q99873); test: Inhibition of PRMT1 (unknown origin) incubated for 15 mins measured after 60 min by AlphaLISA assay
[11] = molecular target: T1, Protein arginine N-methyltransferase 7 (Homo sapiens, UniProt Q9NVM4); test: Inhibition of PRMT7 (unknown origin) by radioisotope based assay
T1 sequence (Q9NVM4 whole entry): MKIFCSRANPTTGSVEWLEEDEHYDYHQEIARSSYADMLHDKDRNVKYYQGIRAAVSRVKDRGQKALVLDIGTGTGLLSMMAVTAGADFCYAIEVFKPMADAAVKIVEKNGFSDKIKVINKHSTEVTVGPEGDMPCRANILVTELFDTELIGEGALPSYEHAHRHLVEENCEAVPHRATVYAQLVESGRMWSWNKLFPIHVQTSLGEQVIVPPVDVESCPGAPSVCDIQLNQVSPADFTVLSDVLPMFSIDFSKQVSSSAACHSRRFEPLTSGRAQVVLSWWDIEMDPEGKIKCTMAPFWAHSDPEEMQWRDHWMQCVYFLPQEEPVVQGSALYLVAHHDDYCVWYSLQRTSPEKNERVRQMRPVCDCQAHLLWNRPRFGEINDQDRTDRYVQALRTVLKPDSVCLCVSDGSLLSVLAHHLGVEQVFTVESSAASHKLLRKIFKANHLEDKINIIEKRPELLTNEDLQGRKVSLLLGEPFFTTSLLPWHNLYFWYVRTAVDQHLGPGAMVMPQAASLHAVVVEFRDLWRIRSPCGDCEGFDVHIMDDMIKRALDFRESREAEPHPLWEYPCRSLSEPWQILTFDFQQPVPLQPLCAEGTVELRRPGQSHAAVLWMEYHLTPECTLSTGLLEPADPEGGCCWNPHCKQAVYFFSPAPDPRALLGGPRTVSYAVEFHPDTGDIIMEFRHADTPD

[12] = Toxicity in po dosed nude mouse xenografted with human A-375 cells assessed as change in body weight at 100 mg/kg administered once daily measured after 21 days; format: organism-based; settings: in vivo, 504 h, time 21 day
[13] = molecular target: Protein arginine N-methyltransferase 6 (Homo sapiens, UniProt Q96LA8); test: Inhibition of PRMT6 (unknown origin) incubated for 15 mins measured after 60 min by AlphaLISA assay
[14] = tested on: BT-549; test: Induction of apoptosis in human BT-549 cells at 15 uM measured after 96 hrs by Annexin V-FITC/PI staining based flow cytometric analysis (reference value: 9.7 %); format: functional
[15] = tested on: SMMC-7721; test: Antiproliferative activity against human SMMC-7721 cells assessed as cell growth inhibition incubated for 6 days by SRB assay; format: functional, cell-based; settings: SMMC-7721, 144 h
[16] = molecular target: Protein arginine N-methyltransferase 8 (Homo sapiens, UniProt Q9NR22); test: Inhibition of PRMT8 (unknown origin) incubated for 15 mins measured after 60 min by AlphaLISA assay
[17] = tested on: A-375; test: Antitumor activity against human A-375 cells xenografted in po dosed nude mouse assessed as tumor growth inhibition at 100 mg/kg administered once daily measured after 21 days relative to control; format: functional; settings: A-375, 504 h, time 21 day, read-out: TGI
[18] = tested on: MDA-MB-453; test: Antiproliferative activity against human MDA-MB-453 cells assessed as cell growth inhibition incubated for 6 days by SRB assay; format: functional, cell-based; settings: MDA-MB-453, 144 h
[19] = molecular target: Protein arginine N-methyltransferase 3 (Homo sapiens, UniProt O60678); test: Inhibition of PRMT3 (unknown origin) incubated for 15 mins measured after 60 min by AlphaLISA assay
[20] = tested on: BT-549; test: Antitumor activity against human BT-549 cells xenografted in po dosed nude mouse assessed as tumor growth inhibition at 125 mg/kg administered once daily measured after 18 days relative to control; format: functional; settings: BT-549, 432 h, time 18 day, read-out: TGI
[21] = tested on: BT-549; test: Antiproliferative activity against human BT-549 cells assessed as cell growth inhibition incubated for 6 days by SRB assay; format: functional, cell-based; settings: BT-549, 144 h

Protein arginine N-methyltransferase 1, sequence (Q99873 whole entry): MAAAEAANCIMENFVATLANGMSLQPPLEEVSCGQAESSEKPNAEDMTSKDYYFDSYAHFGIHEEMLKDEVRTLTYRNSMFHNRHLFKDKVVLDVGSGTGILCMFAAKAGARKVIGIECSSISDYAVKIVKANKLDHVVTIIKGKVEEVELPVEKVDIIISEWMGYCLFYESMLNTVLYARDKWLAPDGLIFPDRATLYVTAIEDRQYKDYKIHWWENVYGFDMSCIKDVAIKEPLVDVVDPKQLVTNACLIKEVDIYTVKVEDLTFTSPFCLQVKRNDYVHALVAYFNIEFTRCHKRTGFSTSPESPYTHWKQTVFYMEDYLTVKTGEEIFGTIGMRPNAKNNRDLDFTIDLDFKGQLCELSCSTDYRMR
Protein arginine N-methyltransferase 5, sequence (O14744 whole entry): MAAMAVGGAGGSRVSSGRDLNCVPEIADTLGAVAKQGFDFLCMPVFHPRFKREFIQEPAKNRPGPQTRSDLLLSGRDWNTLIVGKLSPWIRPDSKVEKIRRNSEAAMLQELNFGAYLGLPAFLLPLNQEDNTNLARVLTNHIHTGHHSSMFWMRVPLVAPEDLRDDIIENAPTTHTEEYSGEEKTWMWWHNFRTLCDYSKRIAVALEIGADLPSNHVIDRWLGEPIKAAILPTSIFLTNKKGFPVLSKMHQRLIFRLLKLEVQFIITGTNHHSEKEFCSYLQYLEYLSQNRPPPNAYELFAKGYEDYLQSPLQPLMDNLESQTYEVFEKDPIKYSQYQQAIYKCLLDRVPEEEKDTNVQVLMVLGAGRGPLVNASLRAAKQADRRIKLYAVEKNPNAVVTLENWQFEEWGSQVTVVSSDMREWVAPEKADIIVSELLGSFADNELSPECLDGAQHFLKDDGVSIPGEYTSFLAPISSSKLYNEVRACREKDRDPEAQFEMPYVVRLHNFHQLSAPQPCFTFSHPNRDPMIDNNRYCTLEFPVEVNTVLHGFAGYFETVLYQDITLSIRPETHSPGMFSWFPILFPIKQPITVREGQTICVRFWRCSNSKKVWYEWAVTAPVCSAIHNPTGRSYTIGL
Protein arginine N-methyltransferase 3, sequence (O60678 whole entry): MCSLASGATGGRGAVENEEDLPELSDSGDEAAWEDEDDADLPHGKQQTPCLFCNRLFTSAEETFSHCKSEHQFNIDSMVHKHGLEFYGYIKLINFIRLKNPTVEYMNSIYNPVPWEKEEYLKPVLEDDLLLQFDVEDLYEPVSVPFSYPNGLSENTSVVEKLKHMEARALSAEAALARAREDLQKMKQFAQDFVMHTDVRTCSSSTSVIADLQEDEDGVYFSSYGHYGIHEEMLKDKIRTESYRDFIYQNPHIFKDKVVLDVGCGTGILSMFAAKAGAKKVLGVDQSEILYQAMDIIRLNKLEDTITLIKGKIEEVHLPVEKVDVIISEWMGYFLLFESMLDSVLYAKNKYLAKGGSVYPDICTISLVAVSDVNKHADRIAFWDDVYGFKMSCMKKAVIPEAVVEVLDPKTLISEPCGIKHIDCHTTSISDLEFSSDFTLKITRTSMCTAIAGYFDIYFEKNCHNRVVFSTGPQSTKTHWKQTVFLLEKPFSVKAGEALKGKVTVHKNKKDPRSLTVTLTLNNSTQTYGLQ
Protein arginine N-methyltransferase 8, sequence (Q9NR22 whole entry): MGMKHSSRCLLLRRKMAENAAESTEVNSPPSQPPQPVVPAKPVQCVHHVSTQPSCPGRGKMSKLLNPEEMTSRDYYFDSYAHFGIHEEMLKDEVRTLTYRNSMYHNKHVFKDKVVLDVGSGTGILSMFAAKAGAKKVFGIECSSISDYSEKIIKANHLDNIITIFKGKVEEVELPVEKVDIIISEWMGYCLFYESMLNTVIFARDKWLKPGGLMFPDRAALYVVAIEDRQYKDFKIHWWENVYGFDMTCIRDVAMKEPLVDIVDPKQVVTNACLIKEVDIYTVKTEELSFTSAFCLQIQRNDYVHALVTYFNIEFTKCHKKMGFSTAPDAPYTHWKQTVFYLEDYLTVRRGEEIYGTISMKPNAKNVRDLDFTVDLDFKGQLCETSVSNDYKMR
Protein arginine N-methyltransferase 6, sequence (Q96LA8 whole entry): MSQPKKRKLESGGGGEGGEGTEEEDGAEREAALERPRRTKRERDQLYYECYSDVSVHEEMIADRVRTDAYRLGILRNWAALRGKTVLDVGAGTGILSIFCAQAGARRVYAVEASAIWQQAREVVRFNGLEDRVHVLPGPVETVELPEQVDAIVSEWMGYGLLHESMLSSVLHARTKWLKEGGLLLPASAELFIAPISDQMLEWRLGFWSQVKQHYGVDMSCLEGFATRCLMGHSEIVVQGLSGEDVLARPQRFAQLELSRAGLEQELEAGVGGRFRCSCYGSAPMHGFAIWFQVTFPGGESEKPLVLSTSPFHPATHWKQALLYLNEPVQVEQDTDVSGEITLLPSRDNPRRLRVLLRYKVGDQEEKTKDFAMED

IC50 [2]: 12.3 µM
IC50 [4]: 5.9 µM
IC50 [6]: > 50 µM
IC50 [10]: > 1 µM
IC50 [11]: > 50 µM
IC50 [13]: 0.49 µM
IC50 [15]: 5.5 µM
IC50 [16]: 0.92 µM
IC50 [18]: 5.7 µM
IC50 [19]: > 1 µM
IC50 [21]: 8.8 µM
Structure (SMILES): CNCCNCc1cccc(-c2nc(Nc3ccccc3)c(C)c(-c3c(C)noc3C)n2)c1
inhibition in vivo at 75 mg/kg [1]: 38%
Activity [3]: Non-Toxic
inhibition in vivo at 100 mg/kg [5]: 23.3%
inhibition in vivo at 100 mg/kg [7]: 79.6%
Activity [8]: 17.2%
Activity [9]: 44%
Activity [12]: Non-Toxic
Activity [14]: 46.1%
inhibition in vivo at 100 mg/kg [17]: 69%
inhibition in vivo at 125 mg/kg [20]: 61.5%
